{"source": "paper PMC10489073", "about": "(Molecules, 2023)", "key": {"[1]": {"molecular_target": "T1, chymotrypsin-like (CT-L) activity of the 20S proteasome (Homo sapiens, UniProt P20618+P28074)", "T1 construct": "purchased R&D systems, Minneapolis, MN, USA", "experiment": "20S proteasome inhibition assay (Proteasome-Glo Chymotrypsin-Like)", "type": "biochemical", "settings": "n ≥ 3, SD <20% of the mean, read-out: IC50 toward Chymotrypsin-like (CT-L)", "procedure": "The 20S proteasome inhibition assay was performed using the Proteasome-Glo™ Chymotrypsin-Like Assay kit (Promega, Alexandria, NSW, Australia). Suc-LLVY-aminoluciferin is a substate that can be cleaved by the 20S proteasome, release the […] (aminoluciferin) and allow the luciferase reaction to produce light. Gradient concentration of tested compounds and the purified 20S proteasome enzyme (R&D systems, Minneapolis, MN, USA) were successively added into a transparent 96-well plate and mixed thoroughly. Then, 50 µL of a […] reagent was added. Gently mix contents with a plate shaker at 300 to 500 rpm for 30 s. Incubate at room temperature for an hour. The luminescence was recorded via the Tecan Spark multimode microplate."}, "[2]": {"tested_on": "subcutaneous P3x63Ag8.653 tumor", "experiment": "In vivo P3x63Ag8.653 tumor transplant model", "set-up": "species or system mice", "procedure": "The animal experiments were conducted under the guidelines of the “Regulations for the Administration of Affairs Concerning Experimental Animals” (revised 2017, State Council No. 676). For the P3x63Ag8.653 tumor development, male mice were subcutaneously injected with 200 μL murine P3x63Ag8.653 cells with a density of 1 × 10^7/mL. On the eighth day after injection, the transplanted mice were randomized into treatment and control groups. The tested compounds were administrated orally at the prescribed dose biweekly for two weeks. After two weeks of administration, mice were executed, and the tumor tissues were dissected and weighed. T/C was calculated according to the following formula: T/C = the mean RTV of the treated group/the mean RTV of the control group, where RTV is the relative tumor volume = Vt/V0 (Vt, the tumor volume measured at the end of treatment; V0, the tumor volume measured at the beginning of treatment)."}, "[3]": {"experiment": "Subacute toxicity experiment", "type": "in vivo", "settings": "SD rats, male and female, 0.006, 0.02 and 0.06 mmol/kg p.o. twice a week, 30 days", "procedure": "The animal experiments were conducted under the guidelines of the “Regulations for the Administration of Affairs Concerning Experimental Animals” (revised 2017, State Council No. 676). For the subacute toxicity study, 12 male and 12 female SD rats (purchased from the Weifang Medical University) were randomly divided into three treatment groups and a control group (n = 6, half male and half female). The rats in treatment groups were given 0.06 mmol/kg (p.o. BIW), 0.02 mmol/kg (p.o. BIW), and 0.006 mmol/kg (p.o. BIW) BC-05, respectively, for 30 days, while the rats in control groups were treated with the same volume of a vehicle solution. The rats were weighed each day and dissected at day 30. Behavioral abnormalities such as lethargy, ruffled fur, anorexia, clonic convulsion, and diarrhea were recorded throughout the entire experimental period."}, "P3x63Ag8.653": {"tested_on": "P3x63Ag8.653", "experiment": "Cell proliferation analysis (MTT)", "type": "cell-based, murine", "settings": "Mus musculus, 48 h, read-out: Anti-proliferative activity IC50, P3x63Ag8.653", "procedure": "(§1) All tumor cell lines in the current research were grown in a certain growth medium containing 10% FBS and 1% (v/v/v) penicillin–streptomycin–amphotericin at 37 °C in 5% CO2. Cells were seeded into 96-well plates at a density of 8 × 10^3 cells per well for tumor adherent cells and 2 × 10^4 cells per well for tumor-suspended cells in a final volume of 100 μL. After 12 h, 100 μL of various concentrations of compounds was added to each and incubated for 48 h. A 0.5% MTT solution was added per well before the intermixture was incubated for another 4 h, and formazan formed from MTT was extracted by adding […] of DMSO rocking for 15 min. Absorbance was measured at 570 nm using a Spark multimode microplate from Tecan. The IC50 values were calculated according to the inhibition ratios."}, "[4]": {"tested_on": "H22 pulmonary metastasis tumor model", "experiment": "In vivo H22 pulmonary metastasis model", "set-up": "species or system Kunming mice", "settings": "p.o., BIW, 2 weeks, vehicle group 71.5", "procedure": "The animal experiments were conducted under the guidelines of the “Regulations for the Administration of Affairs Concerning Experimental Animals” (revised 2017, State Council No. 676). H22 cells (3 × 10^6 cells/100 μL per mouse) were intravenously (i.v.) inoculated via the tail vein of Kunming mice aged 6 weeks on day 0. To ensure the growth of pulmonary metastasis before the drug treatment, the tumor was allowed to develop for 7 days. On day 8, the randomly grouped mice were treated with ixazomib (0.008 mmol/kg, p.o., BIW) or BC-05 (0.006, 0.008, and 0.01 mmol/kg, p.o., BIW) for consecutive 2 weeks. On day […], the mice were weighed and sacrificed, and the lungs were removed and weighed. After being fixed in the Bouin stationary solution for one day, the lung metastasized nodes of each mouse were numbered."}, "[5]": {"experiment": "Acute toxicity experiment (single oral dose)", "type": "in vivo", "settings": "for Survival Animals: 7 days, n = 10", "excerpt": "The mouse mortality was monitored daily and recorded up to 7 days after treatment."}, "HL-7702": {"tested_on": "HL-7702", "experiment": "Cell proliferation analysis (MTT), normal cells", "type": "cell-based", "settings": "Homo sapiens, L02, non-malignant cell line, 48 h, read-out: Anti-proliferative activity IC50, HL-7702", "procedure": "as §1"}, "HEK293": {"tested_on": "HEK293", "experiment": "Cell proliferation analysis (MTT), normal cells", "type": "cell-based", "settings": "Homo sapiens, non-malignant cell line, 48 h, read-out: Anti-proliferative activity IC50, HEK293", "procedure": "as §1"}}}
{"smiles": "CC(C)C[C@H](NC(=O)[C@@H](O)[C@H](N)Cc1ccccc1)B1OC(=O)C(CC(=O)O)(CC(=O)O)O1", "note": "[BC-05, 2,2′-(2-((R)-1-((2S,3R)-3-amino-2-hydroxy-4-phenylbutanamido)-3-methylbutyl)-5-oxo-1,3,2-dioxaborolane-4,4-diyl)diacetic acid]", "values": [{"measurement": "IC50", "setting": "[1]", "result": 1.39, "unit": "µM"}, {"measurement": "T/C (relative tumor volume)", "setting": "[2]; 0.008 mmol/kg oral, two weeks", "result": 31.2, "unit": "%"}, {"measurement": "body weight loss and side effects", "setting": "[2]; tumor-bearing mice, during oral administration", "result": "No obvious body weight loss and discernible side effects"}, {"measurement": "body weight loss", "setting": "[3]", "result": "did not exhibit any significant body weight loss"}, {"measurement": "IC50", "setting": "P3x63Ag8.653", "result": "17.7 ± 0.75", "unit": "µM"}, {"measurement": "number of H22 pulmonary nodes", "setting": "[4]; 0.006 mmol/kg", "result": 17.3}, {"measurement": "number of H22 pulmonary nodes", "setting": "[4]; 0.008 mmol/kg", "result": 15.2}, {"measurement": "number of H22 pulmonary nodes", "setting": "[4]; 0.01 mmol/kg", "result": 12.7}, {"measurement": "LD50 at 7 days", "setting": "[5]; both sexes, Kunming, mouse, in vivo, single oral dose, healthy mice", "result": 400, "unit": "µmol/kg"}, {"measurement": "Survival Animals", "setting": "[5]; single oral 0.27 mmol/kg", "result": "10/10"}, {"measurement": "Survival Animals", "setting": "[5]; single oral 0.36 mmol/kg", "result": "6/10"}, {"measurement": "Survival Animals", "setting": "[5]; single oral 0.49 mmol/kg", "result": "4/10"}, {"measurement": "Survival Animals", "setting": "[5]; single oral 0.65 mmol/kg", "result": "1/10"}, {"measurement": "Survival Animals", "setting": "[5]; single oral 0.86 mmol/kg", "result": "0/10"}, {"measurement": "IC50", "setting": "HL-7702", "result": "> 200", "unit": "µM"}, {"measurement": "IC50", "setting": "HEK293", "result": "> 200", "unit": "µM"}]}
